# Measurements from patent US20250282728A1, “NITROGEN COMPRISING HETEROCYCLIC DERIVATIVES FOR THE TREATMENT OF DISORDERS ASSOCIATED WITH GPR55 RECEPTOR” (Cerevance, Inc., priority 2022, published 2025).
# Legend:
# human GPR55 = target: T1, human GPR55 (Homo sapiens, UniProt Q9Y2T6); assay: Ca2+ mobilization assay (FLIPR, Calcium5 dye), human GPR55; assay type: cell-based; conditions: HEK293 cells co-expressing PK-tagged human GPR55 and EA-tagged beta-arrestin; intracellular calcium increase
# T1 construct: expressed in transfected cells; host or cells: HEK293 (human embryonic kidney) cells
# How it was run: (§1)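 HEK293 cells co-expressing PK-tagged human or rat GPR55 and EA-tagged beta-arrestin were loaded with Calcium5 dye for 1 hour at 37° C in HEPES/HBSS buffer, pH 7.4, with probenecid and 0.1% BSA. Compound dilution series were added in duplicate and calcium rise followed by FLIPR fluorescence; response = maximum minus minimum.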
# [1] = system: striatal medium spiny neurons; assay: Electrophysiology assay: whole-cell patch clamp, firing frequency; assay type: cell-based, Wistar rat; conditions: 10 μM; rat striatal cultures, current steps 10-200 pA; FIG. 2
# Method: Selected compounds were tested in electrophysiology.
# Striatal cultures were prepared as follows. Wistar rat embryos (E18) were sacrificed by cervical dislocation and brains removed into an ice-cold hanks balanced salt solution (HBSS) containing 10 mM HEPES, 1 mM sodium pyruvate and 0.035% sodium bicarbonate. The brain was hemisected, striata removed and placed in a papain solution (Worthington LK003150) for 10 min at 37° C. Tissue was then vigorously triturated until devoid of clumps, passed through a 70 μm mesh filter and centrifuged at 1000 rcf for 5 min. Supernatant was discarded and cells resuspended and centrifuged once more through an ovomucoid gradient before final resuspension in plating medium (containing EMEM 75%, FBS 10%, glutamate 12.5 μM, GlutaMax 0.5 mM, sodium pyruvate 10 mM, glucose 33.3 mM, HEPES […]). Cells were counted and spot plated onto 13 mm coverslips at a density of 200K. After 3 h, solution was topped up to 1 ml with growth medium (containing NBplus 98%, B27plus 2%, GlutaMax 0.5 mM). […]
# Whole-cell patch clamp recordings were performed from visually identified medium spiny neurons. A step protocol was applied to inject current into the cell (10-200 pA, 10 pA steps, 500 ms) and resulting action potentials recorded. […] Frequency of firing was analysed off-line using Clampfit software.
# rat GPR55 = target: T2, rat GPR55 (Rattus norvegicus, UniProt F1MAK4); assay: Ca2+ mobilization assay (FLIPR, Calcium5 dye), rat GPR55; assay type: cell-based; conditions: HEK293 cells co-expressing PK-tagged rat GPR55 and EA-tagged beta-arrestin; intracellular calcium increase
# T2 construct: expressed in transfected cells; host or cells: HEK293 (human embryonic kidney) cells
# T2 sequence (F1MAK4 1-319): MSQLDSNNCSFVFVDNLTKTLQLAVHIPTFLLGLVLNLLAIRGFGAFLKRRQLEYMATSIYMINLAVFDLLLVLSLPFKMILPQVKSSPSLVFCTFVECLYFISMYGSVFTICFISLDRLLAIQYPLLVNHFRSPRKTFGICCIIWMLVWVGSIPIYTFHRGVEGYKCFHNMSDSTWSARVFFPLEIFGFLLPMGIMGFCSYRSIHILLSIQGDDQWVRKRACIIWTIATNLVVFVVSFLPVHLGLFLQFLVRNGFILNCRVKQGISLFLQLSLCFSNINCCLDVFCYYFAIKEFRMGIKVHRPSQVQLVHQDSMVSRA
# How it was run: as §1
# T1 sequence (Q9Y2T6 whole entry): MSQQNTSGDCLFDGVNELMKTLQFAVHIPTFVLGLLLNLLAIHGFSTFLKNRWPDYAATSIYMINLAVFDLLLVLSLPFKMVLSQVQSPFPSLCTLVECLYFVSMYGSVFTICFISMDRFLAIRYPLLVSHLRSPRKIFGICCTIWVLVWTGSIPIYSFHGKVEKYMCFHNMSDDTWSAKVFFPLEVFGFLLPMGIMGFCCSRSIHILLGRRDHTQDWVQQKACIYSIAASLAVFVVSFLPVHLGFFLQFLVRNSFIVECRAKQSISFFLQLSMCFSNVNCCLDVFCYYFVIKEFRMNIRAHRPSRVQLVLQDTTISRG
compound,measurement,setting,value
"COc1cncc(-c2ccc(N[C@H](C)c3ccc(F)cc3)nc2)c1 [Example 6, (R)-N-(1-(4-fluorophenyl)ethyl)-5′-methoxy-[3,3′-bipyridin]-6-amine]",EC50,human GPR55,≤ 200 nM
same,firing frequency of medium spiny neurons relative to baseline,[1],significantly reduced the frequency
same,EC50,rat GPR55,≤ 50 nM
